Publication PMC12279193 (Advanced Science, 2025)
pIC50, pKd: −log10 of the molar value.

Assays:
SARS-CoV-2 S-RBD/ACE2 = SARS-CoV-2 S-RBD/ACE2 (Severe acute respiratory syndrome coronavirus 2, UniProt P0DTC2); assay: NanoBiT RBD/ACE2 interaction assay in HEK293 cells; type: cell-based
[1] = molecular target: recombinant SARS-CoV-2 S-trimer protein; trimeric spike protein (Severe acute respiratory syndrome coronavirus 2, UniProt P0DTC2); assay: SPR (Biacore T200), spike trimer immobilised on CM5 chip; type: binding

CN(/N=C/c1ccccc1C(=O)O)c1nc(-c2ccccc2Cl)cs1 [S416]
pIC50 (SARS-CoV-2 S-RBD/ACE2): 5.40
pKd [1]: 5.16
